What was measured:
HaCAT cells = experiment: Cell penetration efficiency in human epidermal (skin) cells, 4 μM, flow cytometry; assay type: cell-based; conditions: 4 μM FITC-conjugated CPP, one hour
In short: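 HaCAT cells […] were grown 24 h in DMEM with 10% FBS at 37 °C, then treated 1 h with 4 μM FITC-conjugated peptide or FITC-TAT. Cells were trypsinised and washed in D-PBS. Intracellular fluorescence was read by flow cytometry.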

SH-SY5Y cells = experiment: Cell penetration efficiency in human neuroblastoma cells, 4 μM, flow cytometry; assay type: cell-based; conditions: one hour; for cell permeability compared with TAT: 4 μM FITC-conjugated CPP, flow cytometry; for Score / Score/TAT: 4 μM FITC-conjugated peptide; for Score: intracellular fluorescence by flow cytometry; for Score/TAT: ratio to FITC-conjugated TAT
In short: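 SH-SY5Y cells cultured 24 h in DMEM/10% FBS at 37 °C, 5% CO2, then exposed to 4 μM FITC-conjugated peptide (FITC-TAT as reference) for 1 h. After trypsinisation and D-PBS washes, intracellular fluorescence measured by flow cytometry.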

macrophages = experiment: Cell penetration efficiency using macrophages; assay type: cell-based; conditions: macrophages differentiated from THP1 cells, 4 μM FITC-conjugated CPP, one hour
Description: (§1) Subsequently, to confirm whether the CPPs according to the present invention show excellent cell permeability into different types of cells/tissues, various tissue-derived cells were treated with biologically active molecule-conjugated CPPs to compare its delivery capacity with TAT. As in the previous examples, each cell was aliquoted in a plate at an appropriate density, and cultured in a 10% FBS-added medium under a condition of 37° C. and 5% CO2 for 24 hours. Subsequently, the cells were treated with 4 μM each of FITC-conjugated CPP or FITC-conjugated TAT and incubated for one hour. After the completion of the incubation, the cells were transferred to a sterile tube using 0.25% trypsin and centrifuged to remove the medium. Afterward, the cells were washed with 500 μL of D-PBS twice to completely remove the medium, and finally, resuspended in 400 μL of D-PBS and intracellular fluorescence was measured by flow cytometry (FACSCanto II). Macrophages were used by inducing differentiation from THP1 cells. Specifically, the THP-1 cells were aliquoted on a cover glass laid on a 24-well plate to have a density of 6×10^4 cells/well, and after the addition of 100 ng/mL of phorbol 12-myristate 13-acetate (PMA), the cells were incubated for 48 hours to induce the differentiation into macrophages. After 48 hours, the cells were washed with Dulbecco's phosphate buffered saline (DPBS) to perform an experiment.

monocytes = experiment: Cell penetration efficiency using monocytes; assay type: cell-based; conditions: 4 μM FITC-conjugated CPP, one hour
Description: as §1, with “II).” for “II). Macrophages were used by inducing differentiation from THP1 cells. Specifically, the THP-1 cells were aliquoted on a cover glass laid on a 24-well plate to have a density of 6×10^4 cells/well, and after the addition of 100 ng/mL of phorbol 12-myristate 13-acetate (PMA), the cells were incubated for 48 hours to induce the differentiation into macrophages. After 48 hours, the cells were washed with Dulbecco's phosphate buffered saline (DPBS) to perform an experiment.”

HGB cell line = experiment: Cell penetration efficiency in glioblastoma cells; assay type: cell-based, human; conditions: 4 μM FITC-conjugated CPP, one hour
In short: (§2)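 Cells grown 24 h at 37 °C, 5% CO2 in medium with 10% FBS, then exposed 1 h to 4 μM FITC-conjugated CPP or FITC-conjugated TAT. After trypsin detachment and two D-PBS washes, intracellular fluorescence was measured by flow cytometry.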

HDF cell line = experiment: Cell penetration efficiency in skin cells (HDF); assay type: cell-based; conditions: 4 μM FITC-conjugated CPP, one hour
In short: as §2

HeLa cell line = experiment: Cell penetration efficiency using cervical cancer cells; assay type: cell-based; conditions: 4 μM FITC-conjugated CPP, one hour
In short: as §2

HT1080 cell line = experiment: Cell penetration efficiency using connective tissue (fibrosarcoma) cells; assay type: cell-based; conditions: 4 μM FITC-conjugated CPP, one hour
In short: as §2

HepG2 cell line = experiment: Cell penetration efficiency using liver cells; assay type: cell-based; conditions: 4 μM FITC-conjugated CPP, one hour
Description: as §1, with “II).” for “II). Macrophages were used by inducing differentiation from THP1 cells. Specifically, the THP-1 cells were aliquoted on a cover glass laid on a 24-well plate to have a density of 6×10^4 cells/well, and after the addition of 100 ng/mL of phorbol 12-myristate 13-acetate (PMA), the cells were incubated for 48 hours to induce the differentiation into macrophages. After 48 hours, the cells were washed with Dulbecco's phosphate buffered saline (DPBS) to perform an experiment.”

HEK293T cell line = experiment: Cell penetration efficiency using kidney cells; assay type: cell-based; conditions: 4 μM FITC-conjugated CPP, one hour
In short: as §2

A-427 cell line = experiment: Cell penetration efficiency using lung cells; assay type: cell-based; conditions: A-427 lung cells, 4 μM FITC-conjugated CPP, one hour
In short: as §2

SNU-46 cell line = experiment: Cell penetration efficiency using laryngeal cells; assay type: cell-based; conditions: SNU-46 laryngeal cells, 4 μM FITC-conjugated CPP, one hour
In short: as §2

| Sequence | cell permeability compared with TAT (HaCAT cells) | cell permeability compared with TAT (SH-SY5Y cells) | Score (SH-SY5Y cells) | Score/TAT (SH-SY5Y cells) | cell permeability compared with TAT (macrophages) | cell permeability compared with TAT (monocytes) | cell permeability compared with TAT (HGB cell line) | cell permeability compared with TAT (HDF cell line) | cell permeability compared with TAT (HeLa cell line) | cell permeability compared with TAT (HT1080 cell line) | cell permeability compared with TAT (HepG2 cell line) | cell permeability compared with TAT (HEK293T cell line) | cell permeability compared with TAT (A-427 cell line) | cell permeability compared with TAT (SNU-46 cell line) | cell permeability, fold of TAT (HGB cell line) [fold] |
| --- | --- | --- | --- | --- | --- | --- | --- | --- | --- | --- | --- | --- | --- | --- | --- |
| AARIRALRRRRRRP [C72] | higher cell permeability | higher cell permeability | 1026 | 1.977 | higher cell permeability | higher cell permeability | higher cell permeability | higher cell permeability | higher cell permeability | higher cell permeability | higher cell permeability | higher cell permeability | higher cell permeability | higher cell permeability |  |
| ARLRVILRRRHPRR [C95] | higher cell permeability | higher cell permeability | 2417 | 4.657 | higher cell permeability | higher cell permeability | higher cell permeability | higher cell permeability |  | higher cell permeability | higher cell permeability | higher cell permeability | higher cell permeability | higher cell permeability | ≥ 2 |
| LVPRRLRRRARRRK [C179] | higher cell permeability | higher cell permeability | 2076 | 4.000 | higher cell permeability | higher cell permeability | higher cell permeability | higher cell permeability | higher cell permeability | higher cell permeability | higher cell permeability | higher cell permeability | higher cell permeability | higher cell permeability |  |
| WPRRRLRLRHRARR [C113] | higher cell permeability | higher cell permeability | 1278 | 2.462 | higher cell permeability | higher cell permeability | higher cell permeability | higher cell permeability | higher cell permeability | higher cell permeability | higher cell permeability | higher cell permeability | higher cell permeability | higher cell permeability |  |

From patent US11884750B2, “Cationic cell penetrating peptides and the use thereof” (CELLTROY CO., LTD., priority 2021, dated 2024)
